{"source": "patent US6727407B1", "about": "“NUCLEIC ACIDS ENCODING THE ARABIDOPSIS PROTEIN KINASE β-SUBUNIT CKB3 AND A METHOD OF ALTERING CIRCADIAN RHYTHMS AND FLOWERING IN A PLANT BY TRANFORMING WITH A NUCLEIC ACID ENCODING A PROTEIN KINASE β-SUBUNIT” (Regents of the University of California, priority 1998, dated 2004)", "key": {"[1]": {"tested_on": "major DNA-protein complex containing CCA1", "test": "EMSA: formation of the DNA-protein complex containing CCA1 in plant whole-cell extracts (A2 fragment of Lhcb1*3)", "format": "biochemical, Arabidopsis", "conditions": "WCE preincubated 45 min at 30° C.", "experimental": "WCE were incubated in the absence (lane 1) or presence (lane 2) of λ protein phosphatase (200 units added to 200 μl) for 30 min at 30° C. […] WCE from wild type (WT) and a CCA1-ox line (CCA1-ox) (7) grown in 12:12 photoperiods were used in the EMSA. […] WCE were incubated with the indicated inhibitor for 45 min at 30° C. Lane 1, no inhibitors; lane 2, 5 mM 2,3-diphosphoglycerate (D.G.); lane 3, 100 μM quercetin. Arrows indicate the position of the major DNA-protein complex containing CCA1.\nCCA1 was incubated with 0.1 ng of end-labeled A2 fragment of the Arabidopsis Lhcb 1*3 gene (56) in the presence of 0.5 μg of poly(dI-dC) at 25° C. for 15 min. WCE were incubated in preincubation buffer (50 mM Tris-HCl, pH 7.5, 2 mM MnCl2, 5 mM DTT, 0.1 mM EDTA, 0.01% Brij 35) at 30° C. for 45 min, then incubated with the A2 probe in the presence of 1 μg of poly(dI-dC). The EMSA buffer and electrophoresis conditions have been described (56). DNA-protein complexes were detected by autoradiography.\nThe A2 fragment used as a probe includes known binding sites for G-box and CAAT binding proteins (56). […] Further evidence that the marked complex contains CCA1 includes the observations (data not shown) that this complex is absent in extracts prepared from CCA1-null mutant plants and that addition of anti-CCA1 antibodies inhibits its formation. […]"}, "CK1 and CK2": {"molecular_target": "CK1 and CK2", "conditions": "cited from earlier work"}, "[2]": {"tested_on": "CK2-like activity in Arabidopsis whole-cell extracts", "test": "In vitro kinase assay: phosphorylation of GST-CCA1 by Arabidopsis whole-cell extracts", "format": "biochemical", "conditions": "10 mM inhibitor, 160 μg WCE, [γ-32P]ATP, 30° C. 30 min", "experimental": "(§1) GST (lanes 1 and 4) or GST-CCA1 (lanes 2, 3, 5-7) were incubated with 160 μg of WCE in the absence (lanes 1, 2, 4, and 5) or presence (lane 3) of 10 mM 2,3-diphosphoglycerate (D. G.), with recombinant CK2 (rCK2) in the absence (lane 6) or presence of 10 mM 2,3-diphosphoglycerate (lane 7) together with [γ-^32P]ATP (lanes 1-3, 6, and 7) or [γ-^32P]GTP (lanes 4 and 5). The arrow indicates the position of the full-length GST-CCA1 protein.\n(§2) GST-CCA1 bound to glutathione-agarose beads was resuspended in 50 μl of CK2 buffer (50 mM Tris-HCl, pH 7.5, 10 mM MgCl2, 100 mM NaCl, 1 mM DTT. 0.1 mM ATP or GTP) in the presence of 5-10 μCi of [γ-^32P]ATP or GTP. The reaction was started by adding CK2 or whole-cell extracts (WCE) and incubating samples at 30° C. for 30 min. WCE were prepared as described previously (3) except that the phosphatase inhibitor cocktail (5 mM NH4VO3, 0.2 mM ammonium molybdate, 1 mM EGTA, 50 mM NaF) was added to extraction buffer. The beads were washed with phosphate-buffered saline (PBS) containing 1% Triton X-100 and resuspended in 1X SDS-PAGE sample buffer. The phosphorylated samples were separated by 10% SDS-PAGE. ^32P-labeled bands were detected by autoradiography and quantitated with a PhosphorImager.\n(§3) We next examined whether plants contain a CK2-like protein kinase activity that can phosphorylate CCA1 in vitro. […]"}, "recombinant CK2": {"tested_on": "recombinant CK2", "test": "In vitro kinase assay: phosphorylation of GST-CCA1 by recombinant CK2", "format": "biochemical, Arabidopsis", "conditions": "10 mM inhibitor, recombinant CK2, [γ-32P]ATP", "experimental": "as §1, §2, §3"}}}
{"compound": "O=c1c(O)c(-c2ccc(O)c(O)c2)oc2cc(O)cc(O)c12", "note": "[quercetin]", "values": [{"measurement": "formation of the DNA-protein complex containing CCA1", "setting": "[1]; 100 μM inhibitor", "value": "abolished"}, {"measurement": "kinase inhibition specificity", "setting": "CK1 and CK2", "value": "specific to CK2"}]}
{"compound": "2,3-diphosphoglycerate", "values": [{"measurement": "formation of the DNA-protein complex containing CCA1", "setting": "[1]; 5 mM inhibitor", "value": "abolished"}, {"measurement": "kinase inhibition specificity", "setting": "CK1 and CK2", "value": "inhibits both CK1 and CK2"}, {"measurement": "reduction of incorporation of ATP into GST-CCA1", "setting": "[2]", "value": 63, "unit": "%"}, {"measurement": "reduction of phosphorylation of CCA1", "setting": "recombinant CK2", "value": 77, "unit": "%"}]}
